Holding throughout (type): cell-based, mouse
Data set [1] relates to JNK. Description: JNK activation measured by its phosphorylation in osteoclasts and dendritic cells. As to conditions: TRANCE, data not shown. How it is done: Cell stimulation, cell transfection and in vitro assays. In vitro differentiated mature dendritic cells, macrophages and osteoclasts were washed to remove exogenous growth factors, cultured in media with low serum (0.5% FCS, 6 hours), then stimulated by adding various cytokines in the presence or absence of inhibitors for various times as indicated. After stimulation, the cells were washed in ice-cold PBS, and subjected to Western blot analysis or immunoprecipitation as described below.
For Western blotting, whole-cell extracts (20 μg of total protein), immunoprecipitates or kinase reactions were resolved on SDS-PAGE, electro-blotted to PVDF membranes (Immobilon-P, Millipore) according to standard methods (Maniatis, et al., Molecular Cloning: A Laboratory Manual (Cold Spring Harbor Laboratory, New York) 1989), probed with antibodies according to the manufacturer's protocol, and visualized using an immunodetection system. Stripping was performed by incubating the blots in stripping buffer (62.5 mM Tris pH 6.8, 2% SDS, 100 mM β-mercaptoethanol) for 30 min at 55° C.

Data set [2] deals with c-Src. Description: c-Src immunoprecipitate in vitro kinase assay with SAM68 after TRANCE stimulation of cells. How it is done: FIG. 3. c-Src is required for TRANCE-induced PKB activation and osteoclast survival. (A) c-Src was immunoprecipitated from osteoclasts, dendritic cells and macrophages stimulated with TRANCE (1 μg/ml) for the indicated times using an anti-c-Src-specific monoclonal antibody (327). PTK activity of the c-Src immunprecipitates were measured in vitro using SAM68, a PTK specific substrate. The degree of SAM68 phosphorylation was determined by Western blot analysis using an anti-phospho-tyrosine antibody (4G10) and densitometry. Note that c-Src kinase activity was not detectable in TRANCE-treated macrophages most likely due to low levels of c-Src in these cells (Lacey, et al., supra, 1998). (B) Osteoclasts derived from wild type and c-Src deficient mice were stimulated with TRANCE (5 μg/ml) for 10 min and the levels of phosphorylated PKB (PKB^P), total PKB, and total IκBα were determined as in FIG. 1. […] TRAP solution assays were performed and percent survival calculated. […] Osteoclasts were detected by TRAP solution assays. […]
FIG. 5. […] PTK activity of the c-Src immunoprecipitates was measured by in vitro kinase assays using SAM68 as a PTK substrate. The degree of SAM68 phosphorylation (SAM68^P) was determined by Western blot analysis using a phospho-tyrosine specific antibody (4G10) followed by densitometry. […] The degree of SAM68 phosphorylation (SAM68^P) was determined as in (A). […]

Data set [3] has as its system p44/42 ERK. As to the kind of experiment: p44/42 ERK phosphorylation in osteoclasts and dendritic cells (Western blot). As to conditions: after 20 min of TRANCE stimulation. On the procedure:
FIG. 1. TRANCE activates p44/42 ERK, NF-κB and PKB in osteoclasts and dendritic cells. (A) Mature bone marrow-derived osteoclasts were stimulated for the indicated times with recombinant hCD8-TRANCE (TRANCE; 1 μg/ml). Levels of phosphorylated forms of p44/p42 ERK (p44 ERK^P and p42 ERK^P), IκBα (IκB-α^P) and PKB (PKB^P) in whole cell extracts were determined using phospho-peptide-specific antibodies as indicated in the figure. The membranes were stripped and incubated with antibodies against the p44/p42 ERK, IκB-α, and PKB as indicated to confirm that similar amounts of whole cell extracts were analyzed. Note the decrease of IκB-α after 10 min of treatment due to its degradation. (B) as in (A) except the use of mature bone marrow-derived dendritic cells instead of osteoclasts.
Cell stimulation, cell transfection and in vitro assays. In vitro differentiated mature dendritic cells, macrophages and osteoclasts were washed to remove exogenous growth factors, cultured in media with low serum (0.5% FCS, 6 hours), then stimulated by adding various cytokines in the presence or absence of inhibitors for various times as indicated. After stimulation, the cells were washed in ice-cold PBS, and subjected to Western blot analysis or immunoprecipitation as described below. […]
A general note: In western blotting, separated proteins are transferred to a membrane and probed.

Regarding “TNF-related activation-induced cytokine [TRANCE]”, the “JNK activation as measured by its phosphorylation” value in data set [1] is listed as “not detected”. The c-Src kinase activity entry in data set [2] (TRANCE-treated macrophages) is “no detectable”. The “induction of c-Src kinase activity” value in data set [2] (osteoclasts and dendritic cells, TRANCE 1 μg/ml) is reported as “approximately 2 fold”. The ERK phosphorylation result in data set [3] was “transiently induced”.

Values taken from patent US6492124B1, “Trance activated signal transduction pathways in osteoclasts” (The Rockefeller University, priority 1999, dated 2002).
